Assay results taken from patent US20050060764A1, “Mouse model for bone metabolism” (priority 2003, published 2005).
Strand notation (5' to 3'): a small letter for the sugar, then the base; units joined by * are phosphorothioate-linked, units joined directly phosphodiester-linked; [ ] holds rarer units or linkages, { } end groups; capitals alone tell only the bases. e = 2'-O-(2-methoxyethyl) (MOE); [5mC] = 5-methylcytosine; d = 2'-deoxy (DNA)

Assays:
[1] = Serum calcium after RANK antisense oligonucleotide treatment and PTH infusion: time course (Table 13); type: in vivo, mouse; conditions: for Serum calcium concentration: then 24 h PTH
Protocol: In accordance with the present invention, ISIS 181071 was administered to mice for different time periods to evaluate its ability to inhibit RANK expression and PTH-induced serum calcium concentration increase as a function of oligonucleotide treatment time.
(§1) Female Swiss-Webster mice (5-8 wks old) were fed a low-calcium diet and received daily subcutaneous injections of 30 mg/kg of ISIS 181071 (SEQ ID NO: 356) for 2, 3, 5, 7, 10, 14, or 21 days. At the end of the oligonucleotide treatment period, mice were infused with PTH by subcutaneously implanted mini-pumps at a dose of 1 ug/100 g/6 hr. A group of control mice were dosed with either saline, PTH alone (1 ug/100 g/6 hr) or calcitonin (400 ug) plus PTH (1 ug/100 g/6 hr). Following 24 hours of PTH infusion (total PTH delivery of 4ug/100 g), the mice were sacrificed and measurements were made of serum calcium with the Sigma Diagnostics Calcium Kit (Sigma-Aldrich) and RANK mRNA expression in the proximal tibia (as described in other examples herein). Percent RANK mRNA inhibition is normalized to PTH alone treatment.

RANK mRNA = RANK mRNA expression in mouse bone marrow after antisense oligonucleotide treatment and PTH infusion: time course (Table 13); type: in vivo; conditions: then 24 h PTH
Protocol: as §1

[2] = Short-term bone resorption model: serum calcium after PTH infusion (Table 6); type: in vivo, mouse; conditions: mice infused with PTH 1 ug/100 g/6 hr
Text: Parathyroidectomized rats are a well-established, short-term model of bone resorption and are useful in the investigation of antiresorptive agents. However, it is difficult to surgically remove only the parathyroid gland of rodents, and the inadvertent removal of the adjacent thyroid gland often has effects on thyroid hormone levels that introduce into the experiment an undesirable level of variability. Continuous infusion of parathyroid hormone (PTH) into intact, young (6-9 weeks old) mice reproduces the short-term bone resorption activity seen in parathyroidectomized rodents and is thus a useful, non-invasive model for the study of antiresorptive agents. The PTH infusion activates bone osteoclasts and causes them to degrade bone matrix, with a resulting rise in serum calcium. In accordance with the present invention, a short-term mouse model of bone resorption was developed and used to evaluate the effects of PTH infusion on serum calcium concentration and RANKL mRNA levels.
Female, Swiss-Webster mice (5-8 weeks old) were placed on a low calcium diet and implanted with mini-pumps delivering PTH continuously. The pumps were calibrated to deliver 1 ug PTH per 100 g bodyweight per 6 hour time period (1 ug/100 g/6 hr). With this procedure, over a 24 hour period, a total of 4 ug PTH per 100 g body weight is delivered (4 ug/100 g/24 hr). PTH infusion was conducted in these mice for 6, 12, 18 and 24 hours. At the end of each time period, the mice were sacrificed and measurements were made of the serum calcium, using the Sigma Diagnostics Calcium Kit (Sigma-Aldrich), and RANKL mRNA expression in the proximal tibia, as described in other examples herein. The data are expressed as percent increase relative to no PTH treatment.

[3] = Serum calcium concentration after PTH infusion in mice: specificity and dose response of RANK antisense oligonucleotide (Table 15); type: in vivo, mouse; conditions: control mice, no oligonucleotide; PTH 1 ug/100 g/6 hr 24 h, calcitonin 400 ng
Protocol: In accordance with the present invention, the specificity of RANK inhibition by a RANK antisense oligonucleotide was compared to that of an 8-base pair mismatch oligonucleotide.
ISIS 181080 ([…], SEQ ID NO: 357) is an antisense oligonucleotide targeted to mouse RANK. ISIS 208565 ([…], SEQ ID NO: 358) is an 8-base pair mismatch oligonucleotide. […] All cytidine residues are 5-methylcytidines.
Female Swiss-Webster mice (5-8 wks old) fed a low-calcium diet were treated for two weeks with either ISIS 181080 or ISIS 208565. The dose of oligonucleotide was either 40 mg/kg, 30 mg/kg, 20 mg/kg, or 10 mg/kg. After the 2-week treatment with oligonucleotides, the mice were infused with PTH by subcutaneously implanted mini-pumps at a dose of 4 ug/100 g over 24 hours. A group of control mice were dosed with either saline, PTH alone (1 ug/100 g/6 hr) or calcitonin (400 ng) plus PTH (1 ug/100 g/6 hr). After 24 hours of PTH infusion (total PTH delivery of 4 ug/100 g), the mice were sacrificed and measurements were made of serum calcium with the Sigma Diagnostics Calcium Kit (Sigma-Aldrich) and RANK mRNA expression in proximal tibia (as described in other examples herein). The results shown in Table 15 are the average from four mice per group. Percent inhibition of RANK mRNA is normalized to PTH treatment alone. […] The data also illustrate that these effects are occurring due to an antisense mechanism.

[4] = Serum calcium concentration 24 hours after PTH infusion in mice treated with RANKL antisense oligonucleotides (Table 10); type: in vivo, mouse; conditions: no oligonucleotide treatment, PTH 1 ug/100 g/6 hr 24 h, calcitonin 400 ng
Protocol: In accordance with the present invention, the effect of antisense oligonucleotide inhibition on PTH-induced serum calcium concentration increase was measured in mice. The serum calcium concentration in mice was measured as a function of antisense oligonucleotide dose. Calcitonin, a known bone antiresorptive agent, was used as a control for antiresorptive activity.
Female Swiss-Webster (5-8 wks old) mice fed a low-calcium diet were dosed subcutaneously for two weeks with either the oligonucleotides ISIS 180819 (SEQ ID NO: 185) or 180814 (SEQ ID NO: 180) at concentrations of 5 mg/kg, 15 mg/kg, 30 mg/kg, or 40 mg/kg. A control group of mice were treated with calcitonin (400 ng) plus PTH (1 ug/100 g/6 hr), PTH alone (1 ug/100 g/6 hr) or saline. Treatment with oligonucleotides was followed with infusion of PTH by subcutaneously implanted mini-pumps at a dose of 1 ug/100 g/6 hr. After 24 hours of PTH infusion (total PTH delivery of 4 ug/100 g), the mice were sacrificed and the serum calcium concentration was measured with the Sigma Diagnostics Calcium Kit (Sigma-Aldrich). The data, summarized in Table 10 are averages from eight mice. Percent mRNA inhibition is normalized to PTH alone treatment.

In the case of “TCCTCGAGAGGTCTCCTTGC (antisense eT*e[5mC]*e[5mC]*eT*e[5mC]*dG*dA*dG*dA*dG*dG*dT*d[5mC]*dT*d[5mC]*e[5mC]*eT*eT*eG*e[5mC]) [ISIS 181071, 2′-MOE gapmer antisense oligonucleotide targeted to mouse RANK]”, the Serum calcium concentration ([1]; 30 mg/kg daily sc for 2 days) is reported as 20 mg/dL, the Serum calcium concentration ([1]; 30 mg/kg daily sc for 3 days) is reported as 17 mg/dL and the Serum calcium concentration ([1]; 30 mg/kg daily sc for 5 days) is reported as 16 mg/dL. The Serum calcium concentration ([1]; 30 mg/kg daily sc for 7 days) was 16 mg/dL, the Serum calcium concentration ([1]; 30 mg/kg daily sc for 10 days) was 18 mg/dL and the Serum calcium concentration ([1]; 30 mg/kg daily sc for 14 days) was 15 mg/dL. The Serum calcium concentration ([1]; 30 mg/kg daily sc for 21 days) was 15 mg/dL, the “PTH-induced increase in serum calcium concentration” value ([1]; mice, 30 mg/kg daily s.c. for 2, 3, 5, 7, 10, 14, or 21 days, 24 hours PTH infusion) was “lessens the PTH-induced increase in serum calcium concentration” and the “RANK mRNA % inhibition (normalized to PTH) Bone Marrow” value (RANK mRNA; 30 mg/kg daily sc for 2 days) was 0%. For the same molecule, the “RANK mRNA % inhibition (normalized to PTH) Bone Marrow” value (RANK mRNA; 30 mg/kg daily sc for 3 days) was 35%, the “RANK mRNA % inhibition (normalized to PTH) Bone Marrow” value (RANK mRNA; 30 mg/kg daily sc for 5 days) was 32% and the “RANK mRNA % inhibition (normalized to PTH) Bone Marrow” value (RANK mRNA; 30 mg/kg daily sc for 7 days) was 44%. The “RANK mRNA % inhibition (normalized to PTH) Bone Marrow” value (RANK mRNA; 30 mg/kg daily sc for 10 days) was 18%, the “RANK mRNA % inhibition (normalized to PTH) Bone Marrow” value (RANK mRNA; 30 mg/kg daily sc for 14 days) was 36% and the “RANK mRNA % inhibition (normalized to PTH) Bone Marrow” value (RANK mRNA; 30 mg/kg daily sc for 21 days) was 8%.

B1: parathyroid hormone (peptide, UniProt P01270 32-115, looked up)
Parathyroid hormone: SVSEIQLMHNLGKHLNSMERVEWLRKKLQDVHNFVALGAPLAPRDAGSQRPRKKEDNVLVESHEKSLGEADKADVNVLTKAKSQ
notes: parathyroid hormone infused to induce bone resorption in the mouse model
For B1, the “Serum Calcium Concentration % control” value ([2]; 6 hours) was 109 % control, the “Serum Calcium Concentration % control” value ([2]; 12 hours) was 115 % control and the “Serum Calcium Concentration % control” value ([2]; 18 hours) was 125 % control. For the same molecule, the “Serum Calcium Concentration % control” value ([2]; 24 hours (4 ug/100 g)) was 230 % control, the serum calcium [3] was 20 mg/dL and the “serum calcium” value ([4]; control groups under ISIS 180814 columns) was 22 mg/dL. For the same molecule, the “serum calcium” value ([4]; control groups under ISIS 180819 columns) was 22 mg/dL.
